Test results from patent publication US20130090303A1, “Agonists of PY2Y Receptor as a Treatment for Aortic Stenosis and Cardiovascular Calcification” (UNIVERSITE LAVAL, priority 2011, published 2013).

Columns and labels:
[1] = test system: valve interstitial cells (VICs); experiment: In vitro calcification of isolated valve interstitial cells (calcium by Arsenazo III method); format: cell-based; conditions: isolated human VICs, pro-calcifying medium 7 days; FIG. 2A/2B
Procedure: In isolated cells, calcium was measured by the Arsenazo III method (Côte N, et al. J Mol Cell Cardiol 2012;52:1191-202) and results reported as percent changes.
(§1) Human valve interstitial cells (VICs) were isolated by collagenase digestion. To provoke calcification, cells were incubated for 7 days with a pro-calcifying medium containing: DMEM+5% FBS, 10^−7 M insulin, 50 μg /ml ascorbic acid and NaH2PO4 at 2 mM.

[2] = test system: Runx2, osteocalcin; experiment: Real-time PCR expression of Runx2 and osteocalcin in isolated VICs; format: cell-based, Human; conditions: q-PCR normalized to HPRT, FIG. 2C
Procedure: RNA was also extracted from AS valves and cells during in vitro experiments. Total RNA was isolated with RNeasy micro kit from Qiagen (Qiagen, Mississauga, Ont, Canada). The RNA extraction protocol was performed according to manufacturer's instructions using 100 mg of tissue. The quality of total RNA was monitored by capillary electrophoresis (Experion, Biorad, Mississauga, Ont, Canada). Four (4) μg of RNA was reverse transcribed using the Quantitec Reverse Transcription Kit from Qiagen. Quantitative real-time PCR (q-PCR) was performed with Quantitec SYBR Green PCR kit from Qiagen in the Rotor-Gene 6000 system (Corbett Robotics Inc, San Francisco, Calif., USA). The following primers were obtained from (Invitrogen, Burlington, Ont, Canada): P2Y2, Runx2, osteocalcin. The expression of hypoxanthine-guanine phosphoribosyltransferase (HPRT) (Invitrogen, Burlington, On, Canada) as a reference gene was chosen to normalize the results.
as §1

SMILES	calcification of isolated VICs [1]	expression of osteocalcin [2]	expression of the bone transcription factor, Runx2 [2]
O=c1ccn([C@@H]2O[C@H](COP(=O)(O)OP(=O)(O)OP(=O)(O)O)[C@@H](O)[C@H]2O)c(=S)[nH]1 [2-thioUTP]	reduced significantly calcification	decreased the expression	decreased the expression
Cc1ccc(C(=O)Nc2ccc(S(=O)(=O)O)c3cc(S(=O)(=O)O)cc(S(=O)(=O)O)c23)cc1NC(=O)c1cccc(NC(=O)Nc2cccc(C(=O)Nc3cc(C(=O)Nc4ccc(S(=O)(=O)O)c5cc(S(=O)(=O)O)cc(S(=O)(=O)O)c45)ccc3C)c2)c1 [suramin]	increased calcification	–	–
